B1: huC242-DM4 (conjugate, chains of the INN, looked up)
VH: QVQLVQSGAEVKKPGETVKISCKASDYTFTYYGMNWVKQAPGQGLKWMGWIDTTTGEPTYAQKFQGRIAFSLETSASTAYLQIKSLKSEDTATYFCARRGPYNWYFDVWGQGTTVTVSS
VL: DIVMTQSPLSVPVTPGEPVSISCRSSKSLLHSNGNTYLYWFLQRPGQSPQLLIYRMSNLVSGVPDRFSGSGSGTAFTLRISRVEAEDVGVYYCLQHLEYPFTFGPGTKLELK
modifications: DM4 maytansinoid payload

Tests used:
[1] = tested on: MOLP-8 human multiple myeloma xenografts; assay: Xenograft mouse experiments A Part I, MOLP-8, single iv bolus; assay type: in vivo, CB.17 SCID mice; conditions: for tumor growth compared with PBS-treated animals: single iv bolus 250 μg/kg (nBT062 antibody […])
Protocol: In these mice, subcutaneous tumors were established (female CB.17 SCID mice) by inoculation with MOLP-8 cell suspensions. Treatment with a single bolus intravenous injection was conducted when tumor volumes reached an average 113 mm^3. Changes in tumor volume and body weight were monitored twice per week.
Each mouse was inoculated with 1×10^7 MOLP-8 cells subcutaneously into the area under the right shoulder. The total volume was 0.2 ml per mouse, in which the ratio of serum-free medium to matrigel (BD Bioscience, Bedford, Mass.) was 1/1 (v/v). Prior to treatment, the xenograft tumors were monitored daily and were allowed to become established.
Eleven days after tumor cell inoculation, 42 mice were selected based on tumor volumes and body weights. […] The forty-two mice were randomly divided into seven groups (A-G) of six animals each based on tumor volume.
Each of six mice in Group A received 200 μl of PBS as vehicle control.
All agents were intravenously administered as a single bolus injection through a lateral tail vein with a 1 ml syringe fitted with a 27 gauge, ½ inch needle.

[2] = tested on: MOLP-8 tumor xenografts; assay: Bulky MOLP-8 tumor model (Part II / Xenograft mouse experiments B); assay type: in vivo, SCID mice; conditions: 450 μg/kg dose; mean time to reach 160 mm^3 minus control
Protocol: In a second set of experiments, MOLP-8 cells (1.5×10^7 cells per mouse), suspended in a 50:50 mixture of serum free media and matrigel were injected subcutaneously in the area under the right shoulder in 100 μl. Tumor volumes reached about 80 mm^3 at day 11 and the mean of the controls was about 750 mm^3 at day 25, post cell inoculation. […] Each mouse in the control group (n=6) received 0.2 ml of sterile PBS administered into the lateral tail vein (i.v.) in a bolus injection. All treatment doses were based on conjugated maytansinoid. […] Mice were randomized into eleven groups (n=6) by tumor volume using the LabCat Program. The tumor volumes ranged from 40.0 to 152.5 mm^3. The mice were dosed based on the individual body weight.
Tumor size was measured twice per week in three dimensions using the LabCat System (Tumor Measurement and Tracking, Innovative Programming Associated, Inc., Princeton, N.J.).
In this set of experiments, eighty-five mice were inoculated with MOLP-8 cells (1.5×10^7 cells/mouse) subcutaneously in the right shoulder. […] Sixty-six SCID mice bearing bulky MOLP-8 tumors with a mean tumor volume of about 80 mm^3 were randomized into eleven treatment groups (n=6).

Molecule | tumor growth compared with PBS-treated animals [1] | TGD* [2] [days] | homogeneity of anti-tumor activity in individual mice ([1]; single iv 250 μg/kg, FIG. 9)
COc1cc2cc(c1Cl)N(C)C(=O)C[C@H](OC(=O)[C@H](C)N(C)C(=O)CCC(C)(C)S)[C@]1(C)O[C@H]1[C@H](C)[C@@H]1C[C@@](O)(NC(=O)O1)[C@H](OC)/C=C/C=C(\C)C2 [DM4, N^2′-deacetyl-N^2′-(4-methyl-4-mercapto-1-oxopentyl)-maytansine] | did not cause any significant inhibition of tumor growth |  | 
nBT062-DM1 |  | 18 | 
B-B4-SPP-DM1 | marked delay in tumor growth |  | more heterogeneously and therefore less predicable
B1 | did not cause any significant inhibition of tumor growth |  | 

— patent US9446146B2, “Methods and agents for improving targeting of CD138 expressing tumor cells” (BIOTEST AG, priority 2007, dated 2016)
